BindingDB's records for PubMed 8078486 (Eli Lilly, 1994)

Experiments:
[1] = target: 5-hydroxytryptamine receptor 2B (Homo sapiens, UniProt P41595)
[2] = target: 5-hydroxytryptamine receptor 2B (Rattus norvegicus, UniProt P30994)
5-hydroxytryptamine receptor 2B (Rattus norvegicus, UniProt P30994), sequence (P30994 whole entry): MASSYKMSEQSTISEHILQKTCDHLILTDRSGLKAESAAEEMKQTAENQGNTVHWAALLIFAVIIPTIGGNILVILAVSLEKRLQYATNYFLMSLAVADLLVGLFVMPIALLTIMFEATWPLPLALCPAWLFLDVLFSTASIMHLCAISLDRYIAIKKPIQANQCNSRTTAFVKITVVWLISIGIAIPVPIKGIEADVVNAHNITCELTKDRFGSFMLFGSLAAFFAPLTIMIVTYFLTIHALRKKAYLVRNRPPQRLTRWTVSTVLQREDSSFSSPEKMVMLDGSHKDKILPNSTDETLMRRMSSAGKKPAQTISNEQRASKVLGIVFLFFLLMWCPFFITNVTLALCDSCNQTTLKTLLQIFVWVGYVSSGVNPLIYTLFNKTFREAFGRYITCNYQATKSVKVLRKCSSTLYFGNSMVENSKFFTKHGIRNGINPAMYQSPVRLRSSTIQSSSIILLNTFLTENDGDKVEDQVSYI

5-hydroxytryptamine receptor 2B (Homo sapiens, UniProt P41595), sequence (P41595 whole entry): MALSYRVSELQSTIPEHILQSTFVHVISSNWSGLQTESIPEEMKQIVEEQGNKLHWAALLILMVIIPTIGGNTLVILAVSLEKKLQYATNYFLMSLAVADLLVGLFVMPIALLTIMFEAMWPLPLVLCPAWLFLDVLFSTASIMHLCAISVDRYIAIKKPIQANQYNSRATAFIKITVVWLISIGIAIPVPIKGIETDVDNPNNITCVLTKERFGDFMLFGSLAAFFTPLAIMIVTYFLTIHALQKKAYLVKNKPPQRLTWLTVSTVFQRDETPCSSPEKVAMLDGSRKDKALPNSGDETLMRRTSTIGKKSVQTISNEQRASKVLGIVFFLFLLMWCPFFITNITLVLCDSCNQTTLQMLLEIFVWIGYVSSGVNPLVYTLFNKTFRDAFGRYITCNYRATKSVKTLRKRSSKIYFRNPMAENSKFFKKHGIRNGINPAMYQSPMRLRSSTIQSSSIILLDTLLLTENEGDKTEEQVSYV

In the case of `O=C(CCCN1CCC2(CC1)C(=O)NCN2c1ccccc1)c1ccc(F)cc1` [8-[4-(4-fluorophenyl)-4-oxidanylidene-butyl]-1-phenyl-1,3,8-triazaspiro[4.5]decan-4-one], the Ki [1] is reported as 697 nM.
For `Cn1cc(CCN)c2cc(O)ccc21` [5-HT,omega-N-Me], the Ki [1] was 11.9 nM.
In the case of `COc1cc(CC(C)N)c(OC)cc1I` (centres undefined) [[125I]2,5-dimethoxy-4-iodoamphetamine], the Ki [2] is reported as 26.6 nM and the Ki [1] is reported as 19.9 nM.
